Source: patent US11345669B2, “Urea derivatives and methods of use thereof” (NodThera Limited, priority 2017, dated 2022)
Read-outs that look alike come from different tables or passages of the source.

System: IL1-β release upon NLRP3 activation in peripheral blood mononuclear cells (PBMC)
Assay: PBMC IC50 Determination Assay
Format: cell-based
Settings: Homo sapiens
Experimental: PBMC IC50 Determination Assay
The compounds of the present disclosure were tested for their inhibitory activity against IL1-β release upon NLRP3 activation in peripheral blood mononuclear cells (PBMC).
Isolated cells were seeded into the wells of a 96-well plate and incubated for 3 h with lipopolysaccharide (LPS). Following medium exchange, the compounds of the present disclosure were added (a single compound per well) and the cells were incubated for 30 min. Next, the cells were stimulated either with ATP (5 mM) or nigericin (10 μM) for 1 h and the cell culture media from the wells were collected for further analysis.
The release of IL-1β into the media was determined by a quantitative detection of IL-1β in 5 the media using an IL-1β enzyme-linked immunosorbent assay (ELISA) Ready-SET-Go!, eBioscience cat. […] Subsequently, plates were blocked with blocking buffer for 1 h at room temperature (rt) and after washing with a buffer (PBS with 0.05% Tween-20) incubated with protein standard and culture media. […] Plates were washed and incubated with HRP-streptavidin for 30 min at rt and washed again. The signal was developed after addition of 3,39,S,59-tetramethylbenzidine-peroxidase (TMB) until color appeared and the reaction was stopped by 2 M H2SO4. A microplate spectrophotometer (BioTek) was used to detect signals with 450 nm. The detection range of IL-1β ELISA was […].

[1] = PBMC from buffy coats, LPS 3 h, compound 30 min, then ATP (5 mM) or nigericin (10 μM) for 1 h, IL-1β in media by ELISA, read-out: PBMCs, IC50
[2] = PBMC, read-out: PBMCs, IC50, μM

| SMILES | IC50 [1] | IC50 [2] |
| --- | --- | --- |
| COC(=O)C(Cc1ccccc1O)NC(=O)Nc1c2c(cc3c1CCC3)CCC2 (stereo not drawn) [Example 2B, Methyl2-{[(1,2,3,5,6,7-hexahydro-s-indacen-4-yl)carbamoyl]amino}-3-(2-hydroxyphenyl)propanoate] | 0.06 µM | – |
| CCOC(=O)C(Cc1nc(C)no1)NC(=O)Nc1c2c(cc3c1CCC3)CCC2 (stereo not drawn) [Example 2XX, Ethyl 2-{[(1,2,3,5,6,7-hexahydro-s-indacen-4-yl)carbamoyl]amino}-3-(3-methyl-1,2,4-oxadiazol-5-yl)propanoate] | 5.1 µM | – |
| COC(=O)[C@@H](Cc1ccccn1)NC(=O)Nc1c2c(cc3c1CCC3)CCC2 [Example 2F, Methyl (2R)-2-{[(1,2,3,5,6,7-hexahydro-s-indacen-4-yl)carbamoyl]amino}-3-(pyridin-2-yl)propanoate] | 4.2 µM | – |
| COC(=O)C(Cc1cccc(-c2cncn2C)c1)NC(=O)Nc1c2c(cc3c1CCC3)CCC2 (stereo not drawn) [Example 2I, Methyl 2-{[(1,2,3,5,6,7-hexahydro-s-indacen-4-yl)carbamoyl]amino}-3-[3-(1-methyl-1H-imidazol-5-yl)phenyl]propanoate] | 0.96 µM | – |
| O=C(Nc1c2c(cc3c1CCC3)CCC2)N[C@H](Cc1cccnc1)C(=O)OC1CCCC1 [Example 2PP, cyclopentyl(2R)-2-{[(1,2,3,5,6,7-hexahydro-s-indacen-4-yl)carbamoyl]amino}-3-(pyridin-3-yl)propanoate] | 0.24 µM | – |
| CCOC(=O)[C@@H](Cc1cccnc1)NC(=O)Nc1c(C(C)C)cccc1C(C)C [Example 2UU, Ethyl (2R)-2-({[2,6-bis(propan-2-yl)phenyl]carbamoyl}amino)-3-(pyridin-3-yl)propanoate] | 21 µM | – |
| CCOC(=O)C(Cc1ccncn1)NC(=O)Nc1c2c(cc3c1CCC3)CCC2 (stereo not drawn) [Example 2AI, ethyl 2-{[(1,2,3,5,6,7-hexahydro-s-indacen-4-yl)carbamoyl]amino}-3-(pyrimidin-4-yl)propanoate] | 6.8 µM | – |
| CCOC(=O)[C@@H](Cc1cccnc1)NC(=O)Nc1cc2c(cc1C(C)C)CCC2 [Example 2AD, Ethyl (2R)-2-({[6-(propan-2-yl)-2,3-dihydro-1H-inden-5-yl]carbamoyl}amino)-3-(pyridin-3-yl)propanoate] | 2.9 µM | – |
| CCOC(=O)C(Cc1ccon1)NC(=O)Nc1c2c(cc3c1CCC3)CCC2 (stereo not drawn) [Example 2AB, Ethyl 2-{[(1,2,3,5,6,7-hexahydro-s-indacen-4-yl)carbamoyl]amino}-3-(1,2-oxazol-3-yl)propanoate] | 1.8 µM | – |
| COC(=O)[C@@H](CC#N)NC(=O)Nc1c2c(cc3c1CCC3)CCC2 [Example 2QQ, methyl(2R)-3-cyano-2-{[(1,2,3,5,6,7-hexahydro-s-indacen-4yl)carbamoyl]amino}propanoate] | < 10 µM | – |
| CCOC(=O)CNC(=O)Nc1c2c(cc3c1CCC3)CCC2 [Example 2X, ethyl 2-{[(1,2,3,5,6,7-hexahydro-s-indacen-4-yl)carbamoyl]amino}acetate] | 1.5 µM | – |
| COC(=O)C(Cn1ccnc1)NC(=O)Nc1c2c(cc3c1CCC3)CCC2 (stereo not drawn) [Example 2DD, methyl 2-{[(1,2,3,5,6,7-hexahydro-s-indacen-4-yl)carbamoyl]amino}-3-(1H-imidazol-1-yl)propanoate] | 6.2 µM | – |
| COC[C@@H](NC(=O)Nc1c2c(cc3c1CCC3)CCC2)C(=O)OC [Example 2II, methyl(2R)-2-{[(1,2,3,5,6,7-hexahydro-s-indacen-4-yl)carbamoyl]amino}-3-methoxypropanoate] | 5.3 µM | – |
| COC(=O)[C@@H](Cc1cccc(Nc2cc[nH]n2)c1)NC(=O)Nc1c2c(cc3c1CCC3)CCC2 [Example 2U, Methyl(2R)-2-{[(1,2,3,5,6,7-hexahydro-s-indacen-4-yl)carbamoyl]amino}-3-{3-[(1H-pyrazol-3-yl)amino]phenyl}propanoate] | 0.31 µM | – |
| COC(=O)[C@@H](Cc1cccc(NC(C)=O)c1)NC(=O)Nc1c2c(cc3c1CCC3)CCC2 [Example 2P, Methyl(2R)-3-(3-acetamidophenyl)-2-{[(1,2,3,5,6,7-hexahydro-s-indacen-4-yl)carbamoyl]amino}propanoate] | 0.14 µM | – |
| COC(=O)[C@@H](Cc1cncnc1)NC(=O)Nc1c2c(cc3c1CCC3)CCC2 [Example 2AE, Methyl (2R)-2-{[(1,2,3,5,6,7-hexahydro-s-indacen-4-yl)carbamoyl]amino}-3-(pyrimidin-5-yl)propanoate] | 4.5 µM | – |
| COC(=O)[C@@H](Cc1ccc(C#N)cc1)NC(=O)Nc1c2c(cc3c1CCC3)CCC2 [Example 2D, Methyl (2R)-3-(4-cyanophenyl)-2-{[(1,2,3,5,6,7-hexahydro-s-indacen-4-yl)carbamoyl]amino}propanoate] | 1.4 µM | – |
| COCCOC(=O)[C@@H](Cc1cccnc1)NC(=O)Nc1c2c(cc3c1CCC3)CCC2 [Example 2MM, 2-methoxyethyl(2R)-2-{[(1,2,3,5,6,7-hexahydro-s-indacen-4-yl)carbamoyl]amino}-3-(pyridin-3-yl)propanoate] | 2.9 µM | – |
| CCOC(=O)CNC(=O)Nc1cc2c(c3c1CCCC3)CCC2 [Example 2T, Ethyl 2-[({1H,2H,3H,6H,7H,8H,9H-cyclopenta[a]naphthalen-5-yl}carbamoyl)amino] acetate] | – | 3.1 µM |
| COC(=O)C(Cc1cnn(C)c1)NC(=O)Nc1c2c(cc3c1CCC3)CCC2 (stereo not drawn) [Example 2Q, Methyl 2-{[(1,2,3,5,6,7-hexahydro-s-indacen-4-yl)carbamoyl]amino}-3-(1-methyl-1H-pyrazol-4-yl)propanoate] | – | 2.4 µM |
| COC(=O)[C@@H](Cc1cccc(N)c1)NC(=O)Nc1c2c(cc3c1CCC3)CCC2 [Example 2HH, methyl(2R)-3-(3-aminophenyl)-2-{[(1,2,3,5,6,7-hexahydro-s-indacen-4yl)carbamoyl]amino}propanoate] | 4.4 µM | – |
